From patent publication US20160206610A1, “METHODS FOR TREATING AND/OR PREVENTING EMESIS AND/OR NAUSEA INCLUDING ACUTE AND/OR DELAYED NAUSEA AND/OR ACUTE EMESIS AND/OR DELAYED EMESIS” (priority 2015, published 2016)

Experiment: Fine particle fraction by Next Generation Impactor at 15 LPM (nebulizer solution)
Type: physicochemical
Conditions: Example 6: nebulizer solution, 0.125% w/w palonosetron chloride in sodium chloride/citrate buffer
Text: For a nebulizer solution for inhalation, a 0.125% w/w solution of palonosetron chloride is formulated in a pharmaceutically acceptable buffer for inhalation (0.85% sodium chloride, 0.062% sodium citrate, 0.019% citric acid in water). If tested through a Next Generation Impactor at 15 LPM, the fine particle fraction of palonosetron <4.7 microns is anticipated to be >20%.

Compound: O=C1c2cccc3c2[C@H](CCC3)CN1[C@@H]1CN2CCC1CC2 [palonosetron]
- fine particle fraction <4.7 microns: > 20%
